# From US11267802B2 (BEBETTER MED INC., priority 2015, dated 2022)
# What was measured:
# H358 = assay: Inhibition assay on tumor cell proliferation (CellTiter-Glo), H358; type: cell-based, Human; settings: Homo sapiens, NCI-H358; H358 (wild-type EGFR), 72 hours, 10% bovine serum
# In short: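 Viability from ATP content by CellTiter-Glo luminescence; inhibition normalised to DMSO (max) and medium-only (min) wells, IC50 by sigmoidal dose-response fitting. LOVO and H358 carry wild-type EGFR; HCC827 has exon 19 deletion.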
# H1975 = assay: Inhibition assay on tumor cell proliferation (CellTiter-Glo), H1975; type: cell-based, Human; settings: Homo sapiens, NCI-H1975; H1975 (L858R and T790M EGFR double mutation), 72 hours, 10% bovine serum
# [1] = Pharmacokinetic experiments of tumor model (plasma and tumor tissue, H1975 xenograft mice); type: in vivo, Balb/C nude mice; settings: oral 30 mg/kg; for AUC(0-inf) / Cmax / Tmax / half-life / AUC(0-t): Balb/C nude, mouse; for AUC(0-t): read-out: AUC0-24
# Experimental: (§1) Balb/C nude mice were purchased from Beijing Vital River Laboratory Animal Technology Co., Ltd., and housed in SPF animal room. The human non-small-cell lung cancer cell line H1975 in a culture dish was collected by trypsin-EDTA (0.25% trypsin, 1 mM EDTA), and then washed with a serum-free PBS solution. Lastly, the cells were implanted after diluted in a serum-free medium. Only the single cell suspension with a survival rate over 90% (Trypan blue rejection) can be used for injection. 5 million cells suspended in a 0.1 ml serum-free culture were injected into the front right flanking subcutaneous region of each mouse by using a 1 ml syringe and a 25G syringe needle, and the blood vessel was carefully avoided. The tumor size was measured in about one week after implantation. A caliper rule was used to measure the tumor size. The tumor volume was calculated by the following formula: tumor volume=(length×width^2)/2.
# When the volume of H1975 xenograft tumor reached a volume of about 400 mm^3, the animals were divided into 6 oral administration groups, that is, excipient control group (0 hour) and groups of 30 minutes, 2 hours, 4 hours, 8 hours, and 24 hours after administration (3 animals at each time point). The compound 91 was dissolved in 30% sulfobutylated beta-cyclodextrin (SBE-β-CD) and 1 N HCl (pH 3-4) at a concentration of 3 mg/ml, and gavage administration at a dose of 30 mg/kg was performed. The mice were euthanized by CO2 at the above time points. Then their blood was collected from the heart and placed in a centrifuge tube containing K2-EDTA, and subjected to plasma collection by centrifugation. The tumor tissue was collected, cooled in liquid nitrogen immediately, and then stored under −80° C. until pharmacokinetic analysis.
# Pharmacokinetic analysis was performed as below: the plasma sample and tumor tissue homogenate sample were mixed with 5 microliter of internal standard (IS), and then extracted with ethyl acetate. After vacuum drying, the residue was re-dissolved in acetonitrile. The sample was filtered and injected into LC-MS/MS for analysis.
# H1975 xenograft tumor [2] = assay: Potency assay of tumor model, 16 consecutive days; type: in vivo, Balb/C nude mice; settings: oral
# Experimental: as §1
# This experiment studied the inhibition of tumor growth in H1975 xenograft tumor model by the compounds 20, 50, 91, and 118. When the mean volume of H1975 tumor reached about 260 mm^3, the animals were divided into 5 oral administration groups, that is, excipient control group and groups of oral administration of compound 20, compound 50, compound 91, and compound 118, respectively (n=8/group). These compounds were dissolved in 30% sulfobutylated beta-cyclodextrin (SBE-β-CD) and 1N HCl (pH 3-4). […]
# H1975 xenograft tumor [3] = assay: Potency assay of tumor model, dose-effect relationship, 22 consecutive days; type: in vivo, Balb/C nude mice; settings: for Tumor inhibition T/C value (%) / Weight change (%): po, qd
# Experimental: as §1
# Further assay was performed to assess the dose-effect relationship of the inhibition of H1975 transplantation tumor growth by the compounds 51 and 91. […] These compounds were dissolved in 30% sulfobutylated beta-cyclodextrin (SBE-β-CD) and 1N HCl (pH 3-4), respectively. […]
# [4] = Pharmacokinetics in beagles after oral administration; type: in vivo; settings: male, beagle, dog, 5 mg/kg, plasma
# Experimental: Male SD rats weighing 250-300 g, or male beagles weighing 9-10 kg, were fasted overnight before the experiment. The object compounds were dissolved in 30% sulfobutylated beta-cyclodextrin (SBE-β-CD), and orally administrated to the rats at a dose of 20 mg/kg or to the beagles at a dose of 5 mg/kg. Blood samples were taken at 15 minutes, 30 minutes, 1 hour, 2 hours, 3 hours, 4 hours, 6 hours, 8 hours and 24 hours after administration. 0.3 ml of blood was collected at every time point, placed in a centrifuge tube containing K2-EDTA (ethylenediamine tetraacetic acid dipotassium) and centrifuged (2,000 g, 10 minutes, 4° C.) to collect plasma, which was then stored in an ultra cold storage freezer at −80° C. 50 μL of plasma sample was mixed with 5 μL of internal standard (IS), and then extracted with ethyl acetate. After vacuum drying, the residue was re-dissolved in acetonitrile. The sample was filtered and injected into LC-MS/MS for analysis.
structure (smiles),measurement,setting,value
"C=CC(=O)Nc1cc(Nc2nccc(-n3c(=O)n(C(C)C)c4cc(F)ccc43)n2)c(OC)cc1N(C)CCN(C)C [Compound 91, N-(2-((2-(dimethylamino)ethyl)(methyl)amino)-5-(4-(5-fluoro-3-isopropyl-2-oxo-2,3-dihydro-1H-benzo[d]imidazol-1-yl)pyrimidin-2-ylamino)-4-methoxyphenyl)acrylamide]",IC50,H358,100 to 1000 nM
same,IC50,H1975,< 10 nM
same,AUC(0-inf),[1]; plasma,5130 ng·h/mL
same,Cmax,[1]; plasma,1720 ng/mL
same,Tmax,[1]; plasma,0.5 h
same,half-life,[1]; plasma,3.1 h
same,AUC(0-t),[1]; plasma,5100 ng·h/mL
same,AUC(0-inf),[1]; tumor tissue,6840 ng·h/mL
same,Cmax,[1]; tumor tissue,868 ng/mL
same,Tmax,[1]; tumor tissue,4 h
same,half-life,[1]; tumor tissue,5.5 h
same,AUC(0-t),[1]; tumor tissue,6430 ng·h/mL
same,absorption after oral administration (in words),[1],absorbed quickly
same,T/C value,"H1975 xenograft tumor [2]; 30 mg/kg qd as printed, 16 days after administration",−95%
same,inhibition of growth of H1975 xenograft tumor (in words),"H1975 xenograft tumor [2]; 30 mg/kg qd, 16 days",tumor regression
same,Tumor inhibition T/C value (%),"H1975 xenograft tumor [3]; 10 mg/kg, 22 consecutive days",−73%
same,Weight change (%),"H1975 xenograft tumor [3]; 10 mg/kg, 22 consecutive days",1.6%
same,Tumor inhibition T/C value (%),"H1975 xenograft tumor [3]; 20 mg/kg, 22 consecutive days",−100%
same,Weight change (%),"H1975 xenograft tumor [3]; 20 mg/kg, 22 consecutive days",1.2%
same,Tumor inhibition T/C value (%),"H1975 xenograft tumor [3]; 40 mg/kg, 22 consecutive days",−100%
same,Weight change (%),"H1975 xenograft tumor [3]; 40 mg/kg, 22 consecutive days",−3.5%
same,tumor outcome (in words),"H1975 xenograft tumor [3]; high dose (40 mg/kg), 22 consecutive days",the tumor disappeared completely
same,dose dependence of inhibition of H1975 xenograft tumor growth (in words),"H1975 xenograft tumor [3]; oral, 10, 20 and 40 mg/kg",dose dependently inhibited
same,AUC(0-inf),[4],814 ng·h/mL
same,Cmax,[4],109 ng/mL
same,Tmax,[4],1.67 h
same,half-life,[4],4.37 h
same,AUC(0-t),[4]; read-out: AUC0-24,786 ng·h/mL
